Values joined by “and” are separate entries in the source; they are usually repeats but may differ in a detail not shown here. Identical values can stand only once. Toxic doses and inconclusive results are not listed.
Test system: BDF1 mice, B16 melanoma ip, median survival T/C
Assay: NCI In Vivo Anticancer Drug Screen. Data for tumor model B16 Melanoma (intraperitoneal) in B6D2F1 (BDF1) mice
Conditions: endpoint: median survival time, higher = longer survival
Summary of the method: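 Mice with transplantable tumors; drug vs vehicle groups; endpoint survival or tumor size; value = T/C.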

[1] = dose: 50.0 mg/kg/injection, schedule: Q01DX009 (ip), vehicle: saline with Tween-80
[2] = dose: 200.0 mg/kg/injection, schedule: Q01DX009 (ip), vehicle: saline with Tween-80
[3] = dose: 6.25 mg/kg/injection, schedule: Q01DX009 (ip), vehicle: Klucel (hydroxypropylcellulose) (HPC)
[4] = dose: 12.5 mg/kg/injection, schedule: Q01DX009 (ip), vehicle: Klucel (hydroxypropylcellulose) (HPC)
[5] = dose: 100.0 mg/kg/injection, schedule: Q01DX009 (ip), vehicle: saline with Tween-80
[6] = dose: 12.5 mg/kg/injection, schedule: Q01DX009 (ip), vehicle: saline with Tween-80
[7] = dose: 25.0 mg/kg/injection, schedule: Q01DX009 (ip), vehicle: saline with Tween-80
[8] = dose: 25.0 mg/kg/injection, schedule: Q01DX009 (ip), vehicle: Klucel (hydroxypropylcellulose) (HPC)
[9] = dose: 50.0 mg/kg/injection, schedule: Q01DX009 (ip), vehicle: Klucel (hydroxypropylcellulose) (HPC)
[10] = dose: 100.0 mg/kg/injection, schedule: Q01DX009 (ip), vehicle: Klucel (hydroxypropylcellulose) (HPC)
[11] = dose: 200.0 mg/kg/injection, schedule: Q01DX009 (ip), vehicle: Klucel (hydroxypropylcellulose) (HPC)
[12] = dose: 12.5 mg/kg/injection, schedule: Q01DX009 (ip), vehicle: saline
[13] = dose: 25.0 mg/kg/injection, schedule: Q01DX009 (ip), vehicle: saline

With `Cc1cc(O)c(C(C)C)cc1S(=O)(=O)O` (tested in a mixture with another compound) the T/C [1] was 98 % of control and the T/C [2] was 100 % of control.
With `CCCN(C(=O)CCl)c1ccccc1` the T/C (dose: 3.13 mg/kg/injection, schedule: Q01DX009 (ip), vehicle: Klucel (hydroxypropylcellulose) (HPC)) was 94 % of control, the T/C [3] was 91 % of control and the T/C [4] was 92 % of control.
With `NC1=NC(=O)NC1(c1ccccc1)c1ccccc1` the T/C [1] was 98 % of control, the T/C [5] was 109 % of control and the T/C [2] was 97 % of control. The T/C (dose: 400.0 mg/kg/injection, schedule: Q01DX009 (ip), vehicle: saline with Tween-80) was 93 % of control.
For `Cc1ccc(NC(=O)CCl)cc1C`, the T/C (dose: 6.25 mg/kg/injection, schedule: Q01DX009 (ip), vehicle: saline with Tween-80) was 102 % of control, the T/C [6] was 100 % of control and the T/C [7] was 95 % of control. For the same compound, the T/C [5] was 95 % of control and the T/C [2] was 95 % of control.
With `NC(=O)NNc1ccc([N+](=O)[O-])cc1[N+](=O)[O-]` the T/C [6] was 95 % of control, the T/C [7] was 97 % of control and the T/C [1] was 97 % of control.
In the case of `O=C1C=C[C@H](O)[C@@]2(CO)O[C@@H]12`, the T/C (dose: 1.25 mg/kg/injection, schedule: Q01DX009 (ip), vehicle: saline with Tween-80) was 101 % of control, the T/C (dose: 2.5 mg/kg/injection, schedule: Q01DX009 (ip), vehicle: saline with Tween-80) was 101 % of control and the T/C (dose: 5.0 mg/kg/injection, schedule: Q01DX009 (ip), vehicle: saline with Tween-80) was 122 % of control. The T/C (dose: 10.0 mg/kg/injection, schedule: Q01DX009 (ip), vehicle: saline with Tween-80) was 104 % of control.
`C[C@@H]1C[C@H]2[C@@H]3CCC4=CC(=O)C=C[C@]4(C)[C@@]3(F)[C@@H](O)C[C@]2(C)[C@@]1(O)C(=O)CO` was tested, and the T/C (dose: 3.12 mg/kg/injection, schedule: Q01DX009 (ip), vehicle: Klucel (hydroxypropylcellulose) (HPC)) was 114 % of control, the T/C [3] was 107 % of control and the T/C [4] was 114 % of control. The T/C [8] was 107 % of control and the T/C [9] was 115 % of control.
For `NNC(=O)c1nc(N)n[nH]1`, the T/C (dose: 100.0 mg/kg/injection, schedule: Q04DX003 (ip), vehicle: saline) was 103 % of control, the T/C (dose: 200.0 mg/kg/injection, schedule: Q04DX003 (ip), vehicle: saline) was 104 % of control and the T/C (dose: 400.0 mg/kg/injection, schedule: Q04DX003 (ip), vehicle: saline) was 103 % of control.
For `O=C1c2ccccc2C(=O)c2c(NCCNCCO)ccc(O)c21`, the T/C (dose: 2.5 mg/kg/injection, schedule: Q01DX009 (ip), vehicle: suspension in saline) was 110 % of control, the T/C (dose: 5.0 mg/kg/injection, schedule: Q01DX009 (ip), vehicle: suspension in saline) was 119 % of control and the T/C (dose: 10.0 mg/kg/injection, schedule: Q01DX009 (ip), vehicle: suspension in saline) was 119 % of control. The T/C (dose: 20.0 mg/kg/injection, schedule: Q01DX009 (ip), vehicle: suspension in saline) was 171 % of control and the T/C (dose: 80.0 mg/kg/injection, schedule: Q01DX009 (ip), vehicle: suspension in saline) was 181 % of control.
In the case of `CC(C)N1CSC(=S)N(Cc2ccccc2)C1`, the T/C [10] was 96 % of control and the T/C [11] was 105 % of control.
In the case of `Cc1noc(C)c1CON`, the T/C (dose: 12.5 mg/kg/injection, schedule: Q04DX003 (ip), vehicle: saline) was 118 % of control, the T/C (dose: 25.0 mg/kg/injection, schedule: Q04DX003 (ip), vehicle: saline) was 118 % of control and the T/C (dose: 50.0 mg/kg/injection, schedule: Q04DX003 (ip), vehicle: saline) was 123 % of control.
In the case of `Cc1ccc(N2C(=O)CC(Sc3ccccc3N)C2=O)cc1` (stereo not given), the T/C [8] was 97 % of control, the T/C [9] was 91 % of control and the T/C [10] was 86 % of control and 91 % of control.
With `CC1(C)C2CCC1C(CO)C2` (stereo not given) the T/C [9] was 100 % of control, the T/C [10] was 103 % of control and the T/C [11] was 90 % of control.
For `OCCOCCOCCN1CCN(C(c2ccccc2)c2ccc(Cl)cc2)CC1` (stereo not given), the T/C [12] was 108 % of control, the T/C [13] was 110 % of control and the T/C (dose: 50.0 mg/kg/injection, schedule: Q01DX009 (ip), vehicle: saline) was 86 % of control. For the same compound, the T/C (dose: 100.0 mg/kg/injection, schedule: Q01DX009 (ip), vehicle: saline) was 86 % of control.
`CCCC1(C)COB(c2ccc(C)cc2)OC1` was tested, and the T/C [8] was 93 % of control, the T/C [9] was 90 % of control and the T/C [10] was 97 % of control. For the same compound, the T/C [11] was 86 % of control and the T/C (dose: 400.0 mg/kg/injection, schedule: Q01DX009 (ip), vehicle: Klucel (hydroxypropylcellulose) (HPC)) was 90 % of control.
With `O=C(CBr)OCCOc1ccccc1` the T/C (dose: 5.0 mg/kg/injection, schedule: Q01DX009 (ip), vehicle: saline sonified) was 87 % of control, the T/C (dose: 10.0 mg/kg/injection, schedule: Q01DX009 (ip), vehicle: saline sonified) was 90 % of control and the T/C (dose: 20.0 mg/kg/injection, schedule: Q01DX009 (ip), vehicle: saline sonified) was 102 % of control. The T/C (dose: 40.0 mg/kg/injection, schedule: Q01DX009 (ip), vehicle: saline sonified) was 92 % of control.
For `Cc1oc2c(c(=O)c1C)C1CCC(C2)N1C` (stereo not given), the T/C [8] was 103 % of control, the T/C [9] was 103 % of control and the T/C [10] was 97 % of control.
With `COc1cc(OC)c(OC)cc1/C=C\c1ccc2ccccc2[n+]1C` the T/C (dose: 6.25 mg/kg/injection, schedule: Q01DX009 (ip), vehicle: saline) was 93 % of control, the T/C [12] was 100 % of control and the T/C [13] was 97 % of control.
In the case of `CCN(CCCCO)CCc1c[nH]c2ccc(OC)cc12`, the T/C (dose: 9.3 mg/kg/injection, schedule: Q01DX009 (ip), vehicle: saline) was 105 % of control, the T/C (dose: 18.75 mg/kg/injection, schedule: Q01DX009 (ip), vehicle: saline) was 90 % of control and the T/C (dose: 37.5 mg/kg/injection, schedule: Q01DX009 (ip), vehicle: saline) was 97 % of control. For the same compound, the T/C (dose: 75.0 mg/kg/injection, schedule: Q01DX009 (ip), vehicle: saline) was 110 % of control.
With `O=C1C(N2CCCC2)=C(N2CC2)C(=O)C(N2CCCC2)=C1N1CC1` the T/C (dose: 0.25 mg/kg/injection, schedule: Q01DX009 (ip), vehicle: saline) was 100 % of control, the T/C (dose: 0.5 mg/kg/injection, schedule: Q01DX009 (ip), vehicle: saline) was 114 % of control and the T/C (dose: 1.0 mg/kg/injection, schedule: Q01DX009 (ip), vehicle: saline) was 111 % of control. For the same compound, the T/C (dose: 2.0 mg/kg/injection, schedule: Q01DX009 (ip), vehicle: saline) was 118 % of control.
With `CC(=O)NC1=C(N2CC2)C(=O)C(NC(C)=O)=C(N2CC2)C1=O` the T/C (dose: 0.12 mg/kg/injection, schedule: Q01DX009 (ip), vehicle: saline with Tween-80) was 106 % of control and 112 % of control, the T/C (dose: 0.25 mg/kg/injection, schedule: Q01DX005 (ip), vehicle: saline with Tween-80) was 103 % of control and 109 % of control and the T/C (dose: 0.25 mg/kg/injection, schedule: Q01DX009 (ip), vehicle: saline with Tween-80) was 107 % of control and 112 % of control. The T/C (dose: 0.5 mg/kg/injection, schedule: Q01DX005 (ip), vehicle: saline with Tween-80) was 107 % of control, the T/C (dose: 0.5 mg/kg/injection, schedule: Q01DX009 (ip), vehicle: saline with Tween-80) was 124 % of control and the T/C (dose: 1.0 mg/kg/injection, schedule: Q01DX005 (ip), vehicle: saline with Tween-80) was 116 % of control and 121 % of control. For the same compound, the T/C (dose: 2.0 mg/kg/injection, schedule: Q01DX009 (ip), vehicle: saline with Tween-80) was 157 % of control, the T/C (dose: 7.0 micrograms/kg/injection, schedule: Q01DX009 (ip), vehicle: saline) was 102 % of control and the T/C (dose: 15.0 micrograms/kg/injection, schedule: Q01DX009 (ip), vehicle: saline) was 95 % of control. For the same compound, the T/C (dose: 31.0 micrograms/kg/injection, schedule: Q01DX009 (ip), vehicle: saline) was 92 % of control, the T/C (dose: 62.0 micrograms/kg/injection, schedule: Q01DX009 (ip), vehicle: saline) was 116 % of control and the T/C (dose: 125.0 micrograms/kg/injection, schedule: Q01DX009 (ip), vehicle: saline) was 95 % of control.
For `O=C(N/N=C/c1ccc(O)cc1O)c1cccnc1`, the T/C (dose: 25.0 mg/kg/injection, schedule: Q01DX009 (ip), vehicle: olive oil, sesame oil, peanut oil) was 86 % of control.
With `CC(=O)Nc1cccc(OCCCOc2cccc(C(=N)N)c2)c1` the T/C (dose: 9.37 mg/kg/injection, schedule: Q04DX003 (ip), vehicle: Klucel (hydroxypropylcellulose) (HPC)) was 102 % of control, the T/C (dose: 18.75 mg/kg/injection, schedule: Q04DX003 (ip), vehicle: Klucel (hydroxypropylcellulose) (HPC)) was 100 % of control and the T/C (dose: 37.5 mg/kg/injection, schedule: Q04DX003 (ip), vehicle: Klucel (hydroxypropylcellulose) (HPC)) was 97 % of control. The T/C [9] was 102 % of control and the T/C [10] was 86 % of control.
With `C[C@]12CC[C@H](O)C[C@@H]1CC[C@@H]1[C@@H]2C(=O)C[C@@]2(C)[C@H]1CC[C@]2(O)C(=O)CBr` the T/C [9] was 90 % of control, the T/C [1] was 100 % of control and the T/C [10] was 93 % of control. The T/C [5] was 94 % of control and the T/C [2] was 91 % of control.
